# Tested on: T1, Epimedium flavonoid-glycosidase
# T1 construct: native secreted enzyme purified from culture supernatant (DEAE-cellulose DE-52)
# Assay: TLC scanning of substrate and products, Lineweaver-Burk plot
# Type: biochemical, Aspergillus sp. y848
# Conditions: 0.02 M acetate buffer pH 5.0, 40°C; icariin 12.5-50 mM
smiles,measurement,value
COc1ccc(-c2oc3c(CC=C(C)C)c(O[C@@H]4O[C@H](CO)[C@@H](O)[C@H](O)[C@H]4O)cc(O)c3c(=O)c2O[C@@H]2O[C@@H](C)[C@H](O)[C@@H](O)[C@H]2O)cc1 [icariin],Km,15.6 mM
